# Experimental data published in article PMC10525795, “Pharmacokinetics of Four Tyrosine Kinase Inhibitors in Adult and Paediatric Chronic Myeloid Leukaemia Patients” (Biomedicines, 2023).
# Read-outs that look alike come from different tables or passages of the source.
# Legend:
# [1] = cited from earlier work
# [2] = cited from earlier work; remark: listed apart in the source
# [3] = Cerebrospinal fluid drug concentration at end of dosing interval (Ctrough), HPLC–UV, patients with CML; assay type: in vivo, human; details: for Cerebrospinal fluid concentrations, median (IQR): all sampled patients with CML on the drug
# p-glycoprotein (PGP) = tested on: p-glycoprotein (PGP); parameters: method as in PMID 28256516; details: cited from earlier work
# [4] = Plasma drug concentration at end of dosing interval (Ctrough), HPLC–UV, patients with CML; details: for Plasma concentrations, median (IQR): all sampled patients with CML on the drug
# [5] = tested on: breast-cancer resistance protein (BRCP); parameters: method as in PMID 28256516; details: cited from earlier work
# [6] = cited from earlier work; remark: listed apart in the source
# BCR–-ABL kinase = details: higher than imatinib; cited from earlier work
smiles,measurement,setting,value
Cc1ccc(NC(=O)c2ccc(CN3CCN(C)CC3)cc2)cc1Nc1nccc(-c2cccnc2)n1 [Imatinib],Blood–brain barrier crossing,[1],ability to cross the blood–brain barrier
same,Time of plasma peak,[2]; oral,2 to 4 h
Cc1ccc(C(=O)Nc2ccc(CN3CCN(C)CC3)c(C(F)(F)F)c2)cc1C#Cc1cnc2cccnn12 [Ponatinib],Half-life,[2],approximately 24 h
same,Time of peak concentration after administration,[2]; oral,≤ 6 h
same,"Cerebrospinal fluid concentrations, median (IQR)",[3],0.65 (0.18–1.65) µg/mL
same,"Cerebrospinal fluid concentrations, median (IQR)",[3]; listed as ponatinib,0.65 µg/mL
Cc1nc(Nc2ncc(C(=O)Nc3c(C)cccc3Cl)s2)cc(N2CCN(CCO)CC2)n1 [Dasatinib],Blood–brain barrier crossing,[1],ability to cross the blood–brain barrier
same,Substrate of PGP,p-glycoprotein (PGP),substrate
same,"Median plasma concentration, adults","[4]; adult patients, N = 3",0.4 µg/mL
same,"Plasma concentrations, median (IQR)",[4],0.06 (0.03–0.33) µg/mL
same,"Plasma concentrations, median (IQR)",[4]; listed as dasatinib,0.06 µg/mL
same,"Median plasma concentration, paediatrics","[4]; paediatric patients, N = 36",0.05 µg/mL
same,Average half-life,[2],1.3 to 5 h
same,Distribution volume,[2],> 3 L/kg
same,Time of concentration peak after administration,[2]; oral,0.5 to 3 h
same,Substrate of BCRP,[5],substrate
same,"Cerebrospinal fluid concentrations, median (IQR)",[3],0.11 (0.06–0.32) µg/mL
same,"Cerebrospinal fluid concentrations, median (IQR)",[3]; listed as dasatinib,0.11 µg/mL
same,"Median CSF level, paediatrics","[3]; paediatric patients, N = 36",0.11 µg/mL
same,Patients with drug-related pulmonary hypertension,[6]; adults with CML who are imatinib-resistant/intolerant,2%
same,Patients with drug-related pulmonary hypertension,[6]; newly diagnosed adults with CML,5%
Cc1cn(-c2cc(NC(=O)c3ccc(C)c(Nc4nccc(-c5cccnc5)n4)c3)cc(C(F)(F)F)c2)cn1 [Nilotinib],Strength of inhibition of tyrosine kinase protein's activity versus imatinib,BCR–-ABL kinase,20–50 times
same,"Plasma concentrations, median (IQR)",[4],0.19 (0.16–0.22) µg/mL
same,Mean plasma concentration,[4]; two adult male patients,190 ng/mL
same,Average half-life,[2],approximately 15 h
same,Bioavailability,[2]; oral,approximately 30%
same,Time of concentration peak after administration,[2]; oral,3 h
